{
  "source": "patent US20230320978A1",
  "about": "“COMPOSITIONS AND METHODS FOR LOWERING INTRACRANIAL PRESSURE” (THE REGENTS OF THE UNIVERSITY OF COLORADO, A BODY CORPORATE, priority 2020, published 2023)",
  "type_in_all_cases": "in vivo",
  "key": {"C57/BL6 mice [1]": {"test_system": "C57/BL6 mice", "assay": "Tracer recovery from nasal mucosa after single intranasal dose and ventricular injection of fluorescent tracer", "settings": "single intranasal dose; for increase in nasal tracer recovery relative to vehicle-treated controls: commercial concentrations, p<0.05 vs control; for nasal tracer recovery at higher doses: higher doses than the commercial concentration (5x or 10x); for increase in tracer recovery from the nasal mucosa relative to control animals: p<0.001 compared to control", "method": "In another exemplary method, compositions including prostaglandin F2-alpha analogues were used to analyze increased lymphatic channel contractility in the nasal mucosa of experimental animals. In this example, prostaglandin F2-alpha analogues latanoprost, bimatoprost, travoprost, latanoprostene bunod, and tafluprost were administered via an intranasal vehicle into the nasal mucosa of mice.\nIn this example, a total of 67 animals were studied using a scaled dosing technique in which each prostaglandin analog was evaluated at its commercial ophthalmic concentration as well as one or two more concentrated forms (either 5× or 10×).\nCommercially available prostaglandin F2-alpha analogues used in the treatment of glaucoma were selected for evaluation; these included latanoprost, bimatoprost, travoprost, latanoprostene bunod, and tafluprost. Initial experiments were conducted with topical ophthalmic preparations, and pharmaceutical grade drug also was obtained and placed into solution for use in a more concentrated form. Agents were solubilized in DMSO and diluted in normal saline.\nFor single inhalation trails described herein, awake adult male and female C57/BL6 mice (approx. 6 weeks of age) were administered intranasal vehicle (10% DMSO) or drug solution (total 8 μl) by placing droplets (1-2 μl) of liquid at the nares using a micropipette and allowing the animal to inhale the liquid spontaneously. Anesthesia with ketamine and xylazine was administered via intraperitoneal injection, and anesthetized animals were placed within a stereotaxic apparatus. For multiday studies, intranasal drug administration was performed on awake animals daily using the same procedure described above. Approximately 6 hours after the third daily dose was given, animals were anesthetized and placed within a stereotaxic apparatus. A midline incision was created along the scalp, and the right lateral ventricle was targeted with placement of a 26-gauge needle to a depth of 3 mm into the brain at a position 1 mm lateral and 0.3 mm anterior to bregma. A 5 μl intraventricular injection of fluorescent tracer (AlexaFluor^647-ovalbumin solution) was delivered at a rate of 100 nl/seconds using a Hamilton syringe and an electric pump. Animals remained anesthetized for the 1 hour recovery period post injection and were then euthanized with a lethal overdose of ketamine followed by secondary cervical dislocation. Nasal turbinates were harvested, and tissue extracts were analyzed by ELISA.\nThe experimental technique was validated by evaluating recovery of fluorescent tracer from nasal mucosa after ventricular injection in the absence of intranasal treatment. Time points for tissue harvest were selected based on increased recovery at 60 minutes versus 30 minutes, with later harvest raising concern for potential contamination of specimens by hematogenous CSF absorption and recirculation of tracer throughout the tissues via arterial flow.\nStatistical analyses were conducted with Stata using either two-tailed Student's t-tests or ANOVA RM with Dunnet's post hoc analysis."}, "C57/BL6 mice [2]": {"test_system": "C57/BL6 mice", "assay": "Tracer recovery from nasal mucosa after single intranasal dose and ventricular injection of fluorescent tracer", "settings": "single inhalation, lower doses, p<0.05 relative to controls"}, "C57/BL6 mice [3]": {"test_system": "C57/BL6 mice", "assay": "Tracer recovery from nasal turbinates after intranasal dosing once a day for three consecutive days", "settings": "0.1, 0.5 or 1 mg/ml once a day for 3 days", "method": "In another example, an additional 14 animals were administered inhaled doses of latanoprost (either 0.1, 0.5, or 1 mg/ml) once a day for three (3) consecutive days. Nasal turbinates were isolated 1 hour after ventricular tracer injection and between 7 and 9 hours after the final latanoprost dose was given intranasally according to the exemplary methods described herein.\nFor single inhalation trails described herein, awake adult male and female C57/BL6 mice (approx. 6 weeks of age) were administered intranasal vehicle (10% DMSO) or drug solution (total 8 μl) by placing droplets (1-2 μl) of liquid at the nares using a micropipette and allowing the animal to inhale the liquid spontaneously. Anesthesia with ketamine and xylazine was administered via intraperitoneal injection, and anesthetized animals were placed within a stereotaxic apparatus. For multiday studies, intranasal drug administration was performed on awake animals daily using the same procedure described above. Approximately 6 hours after the third daily dose was given, animals were anesthetized and placed within a stereotaxic apparatus. […] Nasal turbinates were harvested, and tissue extracts were analyzed by ELISA. […]"}},
  "data": [
    {"smiles": "CCNC(=O)CCC/C=C\\C[C@@H]1[C@@H](/C=C/[C@@H](O)CCc2ccccc2)[C@H](O)C[C@@H]1O", "note": "[bimatoprost]", "values": [
      {"measurement": "increase in nasal tracer recovery relative to vehicle-treated controls", "setting": "C57/BL6 mice [1]", "result": "approximately 1.5 fold"},
      {"measurement": "nasal tracer recovery at higher doses", "setting": "C57/BL6 mice [1]", "result": "did not appear to improve at higher doses"},
      {"measurement": "tracer recovery relative to controls, fluorometric analysis of nasal turbinate homogenates (words, FIG. 3)", "setting": "C57/BL6 mice [2]", "result": "Some enhanced tracer recovery relative to controls"}
    ]},
    {"smiles": "CC(C)OC(=O)CCC/C=C\\C[C@@H]1[C@@H](CC[C@@H](O)CCc2ccccc2)[C@H](O)C[C@@H]1O", "note": "[latanoprost, isopropyl (Z)-7-[(1R,2R,3R,5S)-3,5-dihydroxy-2-[(3R)3-hydroxy-5-phenylpentyl]-cyclopentyl] hept-5-enoate]", "values": [
      {"measurement": "increase in tracer recovery from the nasal mucosa relative to control animals", "setting": "C57/BL6 mice [1]; 0.5 mg/ml solution, after 60 minutes", "result": "approximately 10 fold"},
      {"measurement": "increase in tracer recovery from the nasal mucosa relative to control animals", "setting": "C57/BL6 mice [1]; 1 mg/ml solution, after 60 minutes", "result": "approximately 10 fold"},
      {"measurement": "dose dependence of the increase in tracer recovery from the nasal mucosa", "setting": "C57/BL6 mice [1]; 0.1 to 1 mg/ml, after 60 minutes", "result": "semi dose-dependent increase"},
      {"measurement": "tracer recovery compared with all tested prostaglandin analogs and 0.1 mg/ml latanoprost", "setting": "C57/BL6 mice [1]; concentrated 0.5 mg/ml and 1 mg/ml", "result": "significant increase in tracer recovery over all tested prostaglandin analogs and 0.1 mg/ml latanoprost"},
      {"measurement": "increased tracer recovery vs control", "setting": "C57/BL6 mice [1]; standard ophthalmic dose 0.1 mg/ml, p<0.01 vs control", "result": "approximately 6 fold"},
      {"measurement": "difference in tracer recovery amongst the 3 doses", "setting": "C57/BL6 mice [3]", "result": "no statistically significant difference"},
      {"measurement": "increase in tracer recovery relative to controls", "setting": "C57/BL6 mice [3]; turbinates isolated 1 hour after tracer injection, 7 to 9 hours after final dose, p<0.05", "result": "~3", "unit": "fold"}
    ]},
    {"smiles": "O=C(CCC/C=C\\C[C@@H]1[C@@H](CC[C@@H](O)CCc2ccccc2)[C@H](O)C[C@@H]1O)OCCCCO[N+](=O)[O-]", "note": "[latanoprostene bunod]", "values": [
      {"measurement": "effect on nasal tracer recovery at any tested dose", "setting": "C57/BL6 mice [1]", "result": "Neither travoprost nor latanoprostene bunod demonstrated a measurable effect"}
    ]},
    {"smiles": "CC(C)OC(=O)CCC/C=C\\C[C@@H]1[C@@H](/C=C/C(F)(F)COc2ccccc2)[C@H](O)C[C@@H]1O", "note": "[tafluprost]", "values": [
      {"measurement": "increase in nasal tracer recovery relative to vehicle-treated controls", "setting": "C57/BL6 mice [1]", "result": "approximately 1.5 fold"},
      {"measurement": "nasal tracer recovery at higher doses", "setting": "C57/BL6 mice [1]", "result": "did not appear to improve at higher doses"},
      {"measurement": "tracer recovery relative to controls, fluorometric analysis of nasal turbinate homogenates (words, FIG. 3)", "setting": "C57/BL6 mice [2]", "result": "Some enhanced tracer recovery relative to controls"}
    ]},
    {"smiles": "CC(C)OC(=O)CCC/C=C\\C[C@@H]1[C@@H](/C=C/[C@@H](O)COc2cccc(C(F)(F)F)c2)[C@H](O)C[C@@H]1O", "note": "[travoprost]", "values": [
      {"measurement": "effect on nasal tracer recovery at any tested dose", "setting": "C57/BL6 mice [1]", "result": "Neither travoprost nor latanoprostene bunod demonstrated a measurable effect"}
    ]}
  ]
}
